Where two headings read alike, the source gives them in different places.
Target: T1, ShHTL7 (Striga hermonthica, UniProt A0A0M3PNA2)
T1 sequence (A0A0M3PNA2 1-271): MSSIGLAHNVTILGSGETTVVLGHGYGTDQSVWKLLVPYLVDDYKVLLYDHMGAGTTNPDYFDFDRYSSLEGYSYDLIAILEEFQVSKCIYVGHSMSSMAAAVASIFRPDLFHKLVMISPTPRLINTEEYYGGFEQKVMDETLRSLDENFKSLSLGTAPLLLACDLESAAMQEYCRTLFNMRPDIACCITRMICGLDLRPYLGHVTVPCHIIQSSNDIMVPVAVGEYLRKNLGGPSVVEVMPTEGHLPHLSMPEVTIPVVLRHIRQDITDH
Test: in vitro yoshimulactone green (YLG) fluorescence competition assay
Type: biochemical

Row | IC50 (read-out: IC50) [nM] | SMILES | IC50 [nM]
1 | 189 ± 12 | CC1=CC(O/C=C2/C(=O)OC3c4cc(F)ccc4CC23)OC1=O (stereo not shown) [7FGR24, 7-fluoro-GR24] | 
2 |  | CC1=CC(O/C=C2/C(=O)OC3c4ccccc4CC23)OC1=O (racemic) [rac-GR24] | 319 ± 32
3 |  | CC1=C[C@H](O/C=C2/C(=O)O[C@@H]3c4ccccc4C[C@H]23)OC1=O [(+)-GR24] | 248 ± 32
4 | 521 ± 87 | CC1=CC(O/C=C2/C(=O)OC3c4cc(Br)ccc4CC23)OC1=O (stereo not shown) [7BrGR24, 7-bromo-GR24] | 

Source: paper PMC8484532, “Synthesis and Evaluation of New Halogenated GR24 Analogs as Germination Promotors for Orobanche cumana” (Frontiers in Plant Science, 2021)
